This assay has as its system MV-4-11 cells. Briefly: Gene expression microarray analysis (Affymetrix PrimeView) and GSEA. The assay is classed as cell-based, human. Set-up: RFU PODN (11730768_x_at) / Fold change /veh PODN (11730768_x_at) / RFU LINC00158 (11744669_a_at) / Fold change /veh LINC00158 (11744669_a_at) / RFU DUSP10 (11751237_a_at) / Fold change /veh DUSP10 (11751237_a_at) / RFU ID3 (11757404_x_at) / Fold change /veh ID3 (11757404_x_at) / RFU PLEKHG5 (11737974_s_at) / Fold change /veh PLEKHG5 (11737974_s_at) / RFU LRRC4B (11730491_at) / Fold change /veh LRRC4B (11730491_at) / RFU GIMAP4 (11747438_a_at) / Fold change /veh GIMAP4 (11747438_a_at) / RFU KRT8 (11758183_x_at) / Fold change /veh KRT8 (11758183_x_at) / RFU CNN1 (11734310_a_at) / Fold change /veh CNN1 (11734310_a_at) / RFU VPS37D (11726825_at) / Fold change /veh VPS37D (11726825_at) / RFU C10orf10 (11716522_x_at) / Fold change /veh C10orf10 (11716522_x_at) / RFU KIR2DL2 /// KIR2DL4 /// KIR2DL5A /// KIR2DL5B /// KIR2DS1 /// KIR2DS2 /// KIR2DS3 /// KIR2DS4 /// KIR3DL3 /// KIR3DL3 /// KIR3DS1 (11738374_at) / Fold change /veh KIR2DL2 /// KIR2DL4 /// KIR2DL5A /// KIR2DL5B /// KIR2DS1 /// KIR2DS2 /// KIR2DS3 /// KIR2DS4 /// KIR3DL3 /// KIR3DL3 /// KIR3DS1 (11738374_at) / RFU C1QL1 (11718748_at) / Fold change /veh C1QL1 (11718748_at) / RFU TMPRSS4 (11747572_a_at) / Fold change /veh TMPRSS4 (11747572_a_at) / RFU HAMP (11756126_x_at) / Fold change /veh HAMP (11756126_x_at) / RFU RNFT2 (11725882_a_at) / Fold change /veh RNFT2 (11725882_a_at) / RFU NR4A2 (11747474_a_at) / Fold change /veh NR4A2 (11747474_a_at) / RFU ABCC12 (11746883_a_at) / Fold change /veh ABCC12 (11746883_a_at) / RFU TMEM136 (11760407_x_at) / Fold change /veh TMEM136 (11760407_x_at) / RFU CLDN22 /// WWC2 (11732394_at) / Fold change /veh CLDN22 /// WWC2 (11732394_at) / RFU HLA-DPB1 (11760878_x_at) / Fold change /veh HLA-DPB1 (11760878_x_at) / RFU SPINT1 (11716480_a_at) / Fold change /veh SPINT1 (11716480_a_at) / RFU GAP43 (11754022_s_at) / Fold change /veh GAP43 (11754022_s_at) / RFU A4GNT (11735810_at) / Fold change /veh A4GNT (11735810_at) / RFU PRB3 (11715151_x_at) / Fold change /veh PRB3 (11715151_x_at) / RFU TUBB4B (11761932_at) / Fold change /veh TUBB4B (11761932_at) / RFU CAPN14 (11732068_a_at) / Fold change /veh CAPN14 (11732068_a_at) / RFU TMCC2 (11721928_a_at) / Fold change /veh TMCC2 (11721928_a_at) / RFU IRGQ (11745062_a_at) / Fold change /veh IRGQ (11745062_a_at) / RFU FAM174B (11720279_a_at) / Fold change /veh FAM174B (11720279_a_at) / RFU TMPRSS4 (11748680_a_at) / Fold change /veh TMPRSS4 (11748680_a_at) / RFU FAM212B (11763350_a_at) / Fold change /veh FAM212B (11763350_a_at) / RFU PLEKHG5 (11743358_a_at) / Fold change /veh PLEKHG5 (11743358_a_at) / RFU ZSCAN30 (11745921_a_at) / Fold change /veh ZSCAN30 (11745921_a_at) / RFU CMKLR1 (11741424_a_at) / Fold change /veh CMKLR1 (11741424_a_at) / RFU LOC101060620 /// MAPK8IP1 (11723275_at) / Fold change /veh LOC101060620 /// MAPK8IP1 (11723275_at) / RFU SPTSSB (11747773_x_at) / Fold change /veh SPTSSB (11747773_x_at) / RFU PRSS12 (11739890_at) / Fold change /veh PRSS12 (11739890_at) / RFU BIN1 (11741810_x_at) / Fold change /veh BIN1 (11741810_x_at) / RFU WNT11 (11732464_a_at) / Fold change /veh WNT11 (11732464_a_at) / RFU C10orf10 (11716521_a_at) / Fold change /veh C10orf10 (11716521_a_at) / RFU C5orf56 (11738089_at) / Fold change /veh C5orf56 (11738089_at) / RFU CYB561 (11721691_x_at) / Fold change /veh CYB561 (11721691_x_at) / RFU ANKRD19P (11752326_a_at) / Fold change /veh ANKRD19P (11752326_a_at) / RFU OR2T12 /// OR2T33 /// OR2T8 (11738714_s_at) / Fold change /veh OR2T12 /// OR2T33 /// OR2T8 (11738714_s_at) / RFU VCAN (11748164_a_at) / Fold change /veh VCAN (11748164_a_at) / RFU JSRP1 (11732532_at) / Fold change /veh JSRP1 (11732532_at) / RFU KRTAP10-11 (11738290_x_at) / Fold change /veh KRTAP10-11 (11738290_x_at) / RFU MYO3A (11730013_a_at) / Fold change /veh MYO3A (11730013_a_at) / RFU EBF3 (11725865_a_at) / Fold change /veh EBF3 (11725865_a_at) / RFU CAMK2N1 (11719241_x_at) / Fold change /veh CAMK2N1 (11719241_x_at) / RFU C5orf56 (11738088_a_at) / Fold change /veh C5orf56 (11738088_a_at) / RFU OLFML3 (11715873_a_at) / Fold change /veh OLFML3 (11715873_a_at) / RFU LOC100653217 /// NTM (11731650_a_at) / Fold change /veh LOC100653217 /// NTM (11731650_a_at) / RFU MAPK11 (11762145_a_at) / Fold change /veh MAPK11 (11762145_a_at) / RFU FIZ1 (11724087_x_at) / Fold change /veh FIZ1 (11724087_x_at) / RFU OASL (11726364_x_at) / Fold change /veh OASL (11726364_x_at) / RFU SOX15 (11748057_x_at) / Fold change /veh SOX15 (11748057_x_at) / RFU CD79A (11719716_a_at) / Fold change /veh CD79A (11719716_a_at) / RFU HIST1H1D (11736915_at) / Fold change /veh HIST1H1D (11736915_at) / RFU CASKIN2 (11723855_a_at) / Fold change /veh CASKIN2 (11723855_a_at) / RFU LOC730098 (11760151_x_at) / Fold change /veh LOC730098 (11760151_x_at) / RFU OR4N2 (11742367_at) / Fold change /veh OR4N2 (11742367_at) / RFU PRRT2 (11749266_a_at) / Fold change /veh PRRT2 (11749266_a_at) / RFU SNX32 (11753110_a_at) / Fold change /veh SNX32 (11753110_a_at) / RFU CDHR5 (11726645_a_at) / Fold change /veh CDHR5 (11726645_a_at) / RFU RCAN1 (11760418_a_at) / Fold change /veh RCAN1 (11760418_a_at) / RFU FAM167A (11723789_a_at) / Fold change /veh FAM167A (11723789_a_at) / RFU FAM26E (11764081_at) / Fold change /veh FAM26E (11764081_at) / RFU ISYNA1 (11749810_s_at) / Fold change /veh ISYNA1 (11749810_s_at) / RFU ACY1 (11761880_at) / Fold change /veh ACY1 (11761880_at) / RFU 11764098_at / Fold change /veh 11764098_at / RFU SAMD14 (11745864_x_at) / Fold change /veh SAMD14 (11745864_x_at) / RFU NPB (11741838_a_at) / Fold change /veh NPB (11741838_a_at) / RFU TMPRSS6 (11731388_a_at) / Fold change /veh TMPRSS6 (11731388_a_at) / RFU KRTAP10-2 (11738614_at) / Fold change /veh KRTAP10-2 (11738614_at) / RFU ARHGAP8 /// PRR5-ARHGAP8 (11727945_x_at) / Fold change /veh ARHGAP8 /// PRR5-ARHGAP8 (11727945_x_at) / RFU KRTAP5-7 /// NADSYN1 (11734609_at) / Fold change /veh KRTAP5-7 /// NADSYN1 (11734609_at) / RFU RASL12 (11751679_a_at) / Fold change /veh RASL12 (11751679_a_at) / RFU CDKN2B (11736163_a_at) / Fold change /veh CDKN2B (11736163_a_at) / RFU PRF1 (11729649_at) / Fold change /veh PRF1 (11729649_at) / RFU, ZNF638 /// ZNF638-IT1 / Fold change vs veh, ZNF638 /// ZNF638-IT1 / RFU, PANK3 / Fold change vs veh, PANK3 / RFU, SH3YL1 / Fold change vs veh, SH3YL1 / RFU, ZEB2 / Fold change vs veh, ZEB2 / RFU, NRIP1 / Fold change vs veh, NRIP1 / RFU, PTTG1IP / Fold change vs veh, PTTG1IP / RFU, CAPN2 / Fold change vs veh, CAPN2 / RFU, MED14 / Fold change vs veh, MED14 / RFU, SNORA58 / Fold change vs veh, SNORA58 / RFU, C1orf63 / Fold change vs veh, C1orf63 / RFU, LRRFIP1 / Fold change vs veh, LRRFIP1 / RFU, NDUFAF7 / Fold change vs veh, NDUFAF7 / RFU, SLC12A2 / Fold change vs veh, SLC12A2 / RFU, IBTK / Fold change vs veh, IBTK / RFU, ESF1 / Fold change vs veh, ESF1 / Fold change vs veh, TMEM50B / RFU, TAOK1 / Fold change vs veh, TAOK1 / RFU, ACBD3 / Fold change vs veh, ACBD3 / RFU, TMA16 / Fold change vs veh, TMA16 / RFU, RWDD3 / Fold change vs veh, RWDD3 / RFU, BCAT1 / Fold change vs veh, BCAT1 / RFU, EDEM3 / Fold change vs veh, EDEM3 / RFU, TMEM33 / Fold change vs veh, TMEM33 / RFU, WDR75 / Fold change vs veh, WDR75 / RFU, AHCTF1 / Fold change vs veh, AHCTF1 / RFU, TFRC / Fold change vs veh, TFRC / RFU, ZDHHC17 / Fold change vs veh, ZDHHC17 / RFU, NOM1 / Fold change vs veh, NOM1 / RFU, ARL8B / Fold change vs veh, ARL8B / RFU, ZBTB11 / Fold change vs veh, ZBTB11 / RFU, TAMM41 / Fold change vs veh, TAMM41 / RFU, KIAA1704 /// LOC100996395 / Fold change vs veh, KIAA1704 /// LOC100996395 / RFU, ING1 / Fold change vs veh, ING1 / RFU, TRMT61B / Fold change vs veh, TRMT61B / RFU, FUBP3 / Fold change vs veh, FUBP3 / RFU, TP53 / Fold change vs veh, TP53 / RFU, TNKS2 / Fold change vs veh, TNKS2 / RFU, ZFP14 / Fold change vs veh, ZFP14 / RFU, ACTR2 / Fold change vs veh, ACTR2 / RFU, PPP3R1 / Fold change vs veh, PPP3R1 / RFU, PIK3R1 / Fold change vs veh, PIK3R1 / RFU, HNRNPA1 / Fold change vs veh, HNRNPA1 / RFU, RNF170 / Fold change vs veh, RNF170 / RFU, ZNF28 / Fold change vs veh, ZNF28 / RFU, RNGTT / Fold change vs veh, RNGTT / RFU, OGT / Fold change vs veh, OGT / RFU, BRD1 / Fold change vs veh, BRD1 / RFU, MARS / Fold change vs veh, MARS / RFU, ZNF655 / Fold change vs veh, ZNF655 / RFU, FAHD1 / Fold change vs veh, FAHD1 / RFU, BDP1 / Fold change vs veh, BDP1 / RFU, LRRCC1 / Fold change vs veh, LRRCC1 / RFU, ARID1A / Fold change vs veh, ARID1A / RFU, ZNF146 / Fold change vs veh, ZNF146 / RFU, ZNF330 / Fold change vs veh, ZNF330 / RFU, GPN3 / Fold change vs veh, GPN3 / RFU, C9orf123 / Fold change vs veh, C9orf123 / RFU, N4BP2L2 / Fold change vs veh, N4BP2L2 / RFU, ARFIP1 / Fold change vs veh, ARFIP1 / RFU, FAM179B / Fold change vs veh, FAM179B / RFU, BCL10 / Fold change vs veh, BCL10 / RFU, UHRF1BP1L / Fold change vs veh, UHRF1BP1L / RFU, BET1 / Fold change vs veh, BET1 / RFU, CNOT2 / Fold change vs veh, CNOT2 / RFU, ZNF268 / Fold change vs veh, ZNF268 / Fold change vs veh, ZNF507 / RFU, DGCR2 / Fold change vs veh, DGCR2 / RFU, WDSUB1 / Fold change vs veh, WDSUB1 / Fold change vs veh, HSP90B1 /// MIR3652 / RFU, ADSS / Fold change vs veh, ADSS / RFU, GK / Fold change vs veh, GK / RFU, ZNF148 / Fold change vs veh, ZNF148 / RFU, TAF9 / Fold change vs veh, TAF9 / RFU, SLC1A5 / Fold change vs veh, SLC1A5 / RFU, SLMO2 / Fold change vs veh, SLMO2 / RFU, ABCC4 / Fold change vs veh, ABCC4 / RFU, LOC101060439 /// RAP1B / Fold change vs veh, LOC101060439 /// RAP1B / RFU, RFX7 / Fold change vs veh, RFX7 / RFU, GTPBP10 / Fold change vs veh, GTPBP10 / RFU, CNEP1R1 / Fold change vs veh, CNEP1R1 / RFU, BIVM-ERCC5 /// ERCC5 / Fold change vs veh, BIVM-ERCC5 /// ERCC5 / RFU, ILF3 / Fold change vs veh, ILF3 / RFU 11762660_at / Fold change /veh 11762660_at / RFU VCAN (11757783_s_at) / Fold change /veh VCAN (11757783_s_at) / RFU DDX43 (11728927_at) / Fold change /veh DDX43 (11728927_at) / RFU KRT8 (11758188_x_at) / Fold change /veh KRT8 (11758188_x_at) / RFU NKD1 (11759106_at) / Fold change /veh NKD1 (11759106_at) / RFU SRD5A1 (11742802_a_at) / Fold change /veh SRD5A1 (11742802_a_at) / RFU TPSAB1 /// TPSB2 (11721975_s_at) / Fold change /veh TPSAB1 /// TPSB2 (11721975_s_at) / RFU GSTM3 (11746129_a_at) / Fold change /veh GSTM3 (11746129_a_at) / RFU IL23R (11737362_x_at) / Fold change /veh IL23R (11737362_x_at) / RFU TMEM51 (11727254_a_at) / Fold change /veh TMEM51 (11727254_a_at) / RFU PIWIL2 (11732686_x_at) / Fold change /veh PIWIL2 (11732686_x_at) / RFU ORM1 (11744905_x_at) / Fold change /veh ORM1 (11744905_x_at) / RFU CCDC152 (11743942_at) / Fold change /veh CCDC152 (11743942_at) / RFU ECM1 (11717891_a_at) / Fold change /veh ECM1 (11717891_a_at) / RFU IL23R (11748794_a_at) / Fold change /veh IL23R (11748794_a_at) / RFU TNFAIP8L3 (11732012_x_at) / Fold change /veh TNFAIP8L3 (11732012_x_at) / RFU MBOAT4 (11741988_at) / Fold change /veh MBOAT4 (11741988_at) / RFU 11764193_at / Fold change /veh 11764193_at / RFU TMEM53 (11763286_at) / Fold change /veh TMEM53 (11763286_at) / RFU MAGEB2 (11727129_at) / Fold change /veh MAGEB2 (11727129_at) / RFU TMEM200A (11744735_a_at) / Fold change /veh TMEM200A (11744735_a_at) / RFU CCDC152 (11751479_a_at) / Fold change /veh CCDC152 (11751479_a_at) / RFU FAM211A (11726209_a_at) / Fold change /veh FAM211A (11726209_a_at) / RFU RGS16 (11746705_a_at) / Fold change /veh RGS16 (11746705_a_at) / RFU VCAN (11755009_s_at) / Fold change /veh VCAN (11755009_s_at) / RFU RHOB (11743442_s_at) / Fold change /veh RHOB (11743442_s_at) / RFU RGS16 (11720943_a_at) / Fold change /veh RGS16 (11720943_a_at) / RFU RGS16 (11720944_at) / Fold change /veh RGS16 (11720944_at) / RFU, VPS4B / Fold change vs veh, VPS4B / RFU, CREB1 / Fold change vs veh, CREB1 / RFU, DNAJC13 / Fold change vs veh, DNAJC13 / RFU, GNAQ / Fold change vs veh, GNAQ / RFU, CDK5R1 / Fold change vs veh, CDK5R1 / RFU, ZRANB3 / Fold change vs veh, ZRANB3 / RFU, CUL4A / Fold change vs veh, CUL4A / RFU, CCNY / Fold change vs veh, CCNY / RFU, UFL1 / Fold change vs veh, UFL1 / RFU, COG3 / Fold change vs veh, COG3 / RFU, DIAPH2 / Fold change vs veh, DIAPH2 / RFU, SKA2 / Fold change vs veh, SKA2 / RFU, AFF3 / Fold change vs veh, AFF3 / RFU, LMF1 / Fold change vs veh, LMF1 / RFU, IPO11 / Fold change vs veh, IPO11 / RFU, DFFB / Fold change vs veh, DFFB / RFU, FOXP1 / Fold change vs veh, FOXP1 / RFU, CARD8 / Fold change vs veh, CARD8 / RFU, STRN3 / Fold change vs veh, STRN3 / RFU, ADK / Fold change vs veh, ADK / RFU, RASSF2 / Fold change vs veh, RASSF2 / RFU, WIPF1 / Fold change vs veh, WIPF1 / RFU, LARP1B / Fold change vs veh, LARP1B / RFU, RASA1 / Fold change vs veh, RASA1 / RFU, RB1 / Fold change vs veh, RB1 / RFU, PPFIA1 / Fold change vs veh, PPFIA1 / RFU, MAT2A / Fold change vs veh, MAT2A / RFU, CCT5 / Fold change vs veh, CCT5 / RFU, WDR92 / Fold change vs veh, WDR92 / RFU, CUX1 / Fold change vs veh, CUX1 / RFU, TTC7A / Fold change vs veh, TTC7A / RFU, TMEM135 / Fold change vs veh, TMEM135 / RFU, DEPTOR / Fold change vs veh, DEPTOR / RFU, CPM / Fold change vs veh, CPM / RFU, DNAJB6 / Fold change vs veh, DNAJB6 / RFU, CACNA2D3 / Fold change vs veh, CACNA2D3 / RFU, DTX4 / Fold change vs veh, DTX4 / RFU, TFCP2 / Fold change vs veh, TFCP2 / RFU, GMCL1 /// GMCL1P1 / Fold change vs veh, GMCL1 /// GMCL1P1 / RFU, AEBP2 / Fold change vs veh, AEBP2 / RFU, SNHG1 /// SNORD22 /// SNORD25 /// SNORD26 /// SNORD27 /// SNORD28 /// SNORD29 /// SNORD31 / Fold change vs veh, SNHG1 /// SNORD22 /// SNORD25 /// SNORD26 /// SNORD27 /// SNORD28 /// SNORD29 /// SNORD31 / Fold change (Aza/veh), C12orf56 (ProbeSet 11735607_a_at) / Fold change (ACY-1035/veh), C12orf56 (ProbeSet 11735607_a_at) / Fold change (Aza/veh), FGFR1OP (ProbeSet 11751329_s_at) / Fold change (ACY-1035/veh), FGFR1OP (ProbeSet 11751329_s_at) / Fold change (Aza/veh), VPS36 (ProbeSet 11739960_a_at) / Fold change (ACY-1035/veh), VPS36 (ProbeSet 11739960_a_at) / RFU SYPL1 (11715823_x_at) / Fold change /veh SYPL1 (11715823_x_at) / RFU IGFBP7 (11715501_s_at) / Fold change /veh IGFBP7 (11715501_s_at) / RFU REEP3 (11722064_at) / Fold change /veh REEP3 (11722064_at) / RFU IGLL1 (11728026_x_at) / Fold change /veh IGLL1 (11728026_x_at): dose or concentration left out as unconfirmed. The settings on record: ProbeSet 11753623_s_at; LIST D.

Regarding `Nc1ccc(-c2cccs2)cc1NC(=O)c1ccc2c(c1)cc(C1CC1)n2CCN1CCOCC1` [ACY-1035], the “RFU, LOC101060439 /// RAP1B” value was found to be 312.98 RFU.
